The supplement of paper PMC10307832

Experiments:
Experiment in all cases: relative viability (nuclei count vs DMSO), 5 days (fraction); higher = more cells survive
IPA-3 + OSI-027 = compound: C1=CC=C2C(=C1)C=CC(=C2SSC3=C(C=CC4=CC=CC=C43)O)O [IPA-3] + COc1cccc2cc(-c3nc([C@H]4CC[C@H](C(=O)O)CC4)n4ncnc(N)c34)[nH]c12 [OSI-027] (partner 0.5 µM)
Summary of the method: (§1)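 Lung cancer cell lines were pin-tool dosed in 1536-well plates on the day after seeding, with either a lone drug or a fixed anchor-drug dose plus five library-drug doses (not always all listed) in √10 steps. Nuclei were counted on 4× images after 5 days. Relative viability is the ratio of treated-well to vehicle-well nuclei counts, with each value a median of duplicate plates.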

IPA-3 + Vorinostat = compound: C1=CC=C2C(=C1)C=CC(=C2SSC3=C(C=CC4=CC=CC=C43)O)O [IPA-3] + O=C(CCCCCCC(=O)Nc1ccccc1)NO [Vorinostat] (partner 1 µM)
Summary of the method: as §1

IPA-3 + Pemetrexed = compound: C1=CC=C2C(=C1)C=CC(=C2SSC3=C(C=CC4=CC=CC=C43)O)O [IPA-3] + Nc1nc2[nH]cc(CCc3ccc(C(=O)N[C@@H](CCC(=O)O)C(=O)O)cc3)c2c(=O)[nH]1 [Pemetrexed] (partner 0.2 µM)
Summary of the method: as §1

Doramapimod + Pictilisib = compound: Cc1ccc(-n2nc(C(C)(C)C)cc2NC(=O)Nc2ccc(OCCN3CCOCC3)c3ccccc23)cc1 [Doramapimod] + CS(=O)(=O)N1CCN(Cc2cc3nc(-c4cccc5[nH]ncc45)nc(N4CCOCC4)c3s2)CC1 [Pictilisib] (partner 1 µM)
Summary of the method: as §1

Cell Line	relative viability (IPA-3 + OSI-027; first compound 0.2 µM)	relative viability (IPA-3 + OSI-027; first compound 0.6325 µM)	relative viability (IPA-3 + OSI-027; first compound 6.325 µM)	relative viability (IPA-3 + OSI-027; first compound 20 µM)	relative viability (IPA-3 + Vorinostat; first compound 0.2 µM)	relative viability (IPA-3 + Vorinostat; first compound 0.6325 µM)	relative viability (IPA-3 + Vorinostat; first compound 2 µM)	relative viability (IPA-3 + Vorinostat; first compound 6.325 µM)	relative viability (IPA-3 + Vorinostat; first compound 20 µM)	relative viability (IPA-3 + Pemetrexed; first compound 0.2 µM)	relative viability (IPA-3 + Pemetrexed; first compound 0.6325 µM)	relative viability (IPA-3 + Pemetrexed; first compound 2 µM)	relative viability (IPA-3 + Pemetrexed; first compound 6.325 µM)	relative viability (IPA-3 + Pemetrexed; first compound 20 µM)	relative viability (Doramapimod + Pictilisib; first compound 0.02 µM)	relative viability (Doramapimod + Pictilisib; first compound 0.06325 µM)	relative viability (Doramapimod + Pictilisib; first compound 0.2 µM)	relative viability (Doramapimod + Pictilisib; first compound 0.6325 µM)	relative viability (Doramapimod + Pictilisib; first compound 2 µM)	relative viability (IPA-3 + OSI-027; first compound 2 µM)
201T	0.741	0.683	0.743	0.755	1.04	0.931	1.01	0.926	1.13	0.311	0.349	0.373	0.295	0.338	0.696	0.662	0.668	0.863	0.609	
A549															0.533	0.492	0.522	0.497	0.421	
A-427	0.432	0.438	0.388	0.451	0.858	0.88	0.9	0.918	0.853	1.06	1.01	0.998	0.903	0.982	0.642	0.814	0.845		0.676	0.491
ABC-1	0.55	0.426	0.564	0.567	1.2	1.31	1.11	1.12	1.13						0.847	0.614	0.646	0.757	0.737	0.457
BEN	0.309	0.295	0.302	0.333	0.594	0.59	0.586	0.686	0.568	0.751	0.843	0.852	0.814	0.774	0.578	0.501	0.524	0.559	0.531	0.288
CAL-12T	0.884	0.63	0.475	0.656	1	0.58	0.773	0.762	1.13	1.21	0.983	0.942	1.26	1.24	0.456	0.378	0.463	0.33	0.392	0.676
COR-L23	1.05	0.771	0.696	0.552	0.561	0.471	0.416	0.232	0.307	0.212	0.194	0.193	0.198	0.204	0.812	0.791	0.796	0.797	0.751	0.795
COR-L 105	0.9	0.569	0.74	0.738	1.08	0.543	0.907	0.995	0.79	1.22	0.904	1.07	1.18	1.14	0.425	0.344	0.374	0.426	0.379	0.603
Calu-6															0.89	0.891	0.91	0.997	0.844	
ChaGo-K-1	0.708	0.551	0.603	0.628	0.968	0.699	0.757	0.864	0.875	0.257	0.264	0.272	0.281	0.263	0.805	0.888	0.96		0.688	0.574
EBC-1															0.355	0.279	0.363	0.355	0.247	
EKVX	0.649	0.68	0.728	0.786	0.801	0.693	0.83	0.793	0.763	0.407	0.439	0.429	0.426	0.582	0.391	0.375	0.364	0.513	0.352	0.738
EMC-BAC-2	0.435	0.379	0.482	0.438	0.436	0.556	0.504	0.428	0.491	0.456	0.461	0.458	0.437	0.464	0.542	0.468	0.51	0.741	0.513	0.367
EPLC-272H	0.293	0.281	0.264	0.335	0.397	0.468	0.366	0.482	0.546	0.415	0.309	0.337	0.355	0.371	0.344	0.418	0.377	0.296	0.275	0.236
H3255	0.609	0.566	0.508	0.62	1.05	0.759	0.801	0.791	0.967	0.572	0.551	0.561	0.527	0.548	0.485	0.495	0.466	0.545	0.414	0.677
HARA	0.605	0.45	0.396	0.606	0.48	0.509	0.421	0.653	0.447	0.298	0.227	0.249	0.229	0.24	0.281	0.347	0.273	0.503	0.302	0.479
HCC-15	0.765	0.685	0.688	0.718	0.929	0.937	0.894	0.804	0.975	0.222	0.23	0.214	0.225	0.221	0.728	0.684	0.8	0.359	0.689	0.636
HCC-44	0.516	0.704	0.482	0.484	1.03	1.03	1.04	1.07	0.986	0.607	0.575	0.588	0.617	0.616	1.46	0.58	0.546	0.581	0.35	0.489
HCC-78	0.419	0.407	0.382	0.353	0.464	0.437	0.476	0.442	0.489	0.918	0.894	0.999	0.869	0.953	0.224	0.208	0.224	0.173	0.184	0.641
